The results in this text go back to patent publication US20250243210A1, “CRBN E3 LIGASE LIGAND COMPOUND, PROTEIN DEGRADER DEVELOPED BASED THEREON AND THEIR APPLICATIONS” (GLUETACS THERAPEUTICS (SHANGHAI) CO., LTD., priority 2021, published 2025).

Molecules are shown by their SMILES. Where two headings read alike, the source gives them in different places.

Test [1] has as its system MGC80-3. Nature of the test: CCK-8 tumor cell proliferation, MGC80-3. The class given is cell-based, Human. As to conditions: read-out: IC50 for inhibiting the proliferation of tumor cells, MGC80-3. Here is the method: (§1) Determination of half inhibitory concentration (IC50) of the compounds against tumor cells:
(§2) The tumor cells used herein were cultured in a cell culture medium listed in table 6 at 37° C. in an incubator with 5% CO2. Prior to experimentation, all cells used were correctly identified by STR profiling, and tested negative for mycoplasma through routine screenings.
(§3) IC50 values of the compounds of the present disclosure (including the compounds in Table 4 and compounds of examples 1-72) were measured using the Meilun Cell Counting Kit-S kit from Dalian Meilun Biotech Co., Ltd. Assay details are as follows: tumor cells were seeded in a 96-well plate at a density listed in Table 7. After 24 h, 100 μL of the inoculated cells were treated with 0.5 μL of the compounds of the present disclosure (including the compounds in Table 4 and compounds of examples 1-72) at 10 different successively decreasing concentrations (starting at the highest concentration of 10 μM; 5-fold serial dilutions). After the cells were treated with the compounds of the present disclosure for a period of time (the treatment times listed in Table 7), the cell viability detection reagent was added to the culture medium for cell viability assessment according to the instructions provided with the CCK-8 kit. […] The growth inhibition of the compounds of the present disclosure on cells was plotted by Prism Graphpad software, and the IC50 values of the compounds of the present disclosure were calculated therefrom.

For test [2], the system named is DU-145. In words: CCK-8 tumor cell proliferation, DU-145. The following applies: DU-145, 96 h, read-out: IC50 for inhibiting the proliferation of tumor cells, DU-145. The test is classed as cell-based, Human. As for the experimental part:
as §1
(§4) The tumor cells used herein were cultured in a cell culture medium listed in table 6 at 37° C. in an incubator with 5% CO2.
(§5) After the cells were treated with the compounds of the present disclosure for a period of time (the treatment times listed in Table 7), the cell viability detection reagent was added to the culture medium for cell viability assessment according to the instructions provided with the CCK-8 kit. […] The growth inhibition of the compounds of the present disclosure on cells was plotted by Prism Graphpad software, and the IC50 values of the compounds of the present disclosure were calculated therefrom.

In test [3] the test system is LNcap. In words: CCK-8 tumor cell proliferation, LNcap. As to conditions: 96 h, read-out: IC50 for inhibiting the proliferation of tumor cells, LNcap. The test is classed as cell-based, Human. As for the experimental part: as §1, §2, §3
In test [4] the test system is PC-3. Nature of the test: CCK-8 tumor cell proliferation, PC-3. The class given is cell-based, Human. The following applies: Homo sapiens, PC-3, 96 h, read-out: IC50 for inhibiting the proliferation of tumor cells, PC-3. As for the experimental part: as §1, §4, §5
The test system of test [5] is A549. In words: CCK-8 tumor cell proliferation, A549. As to conditions: A549, 96 h, read-out: IC50 for inhibiting the proliferation of tumor cells, A549. The class given is cell-based, Human. As for the experimental part:
as §1, §2, §3

The subject of test [6] is WSU-DLCL2. Nature of the test: CCK-8 tumor cell proliferation, WSU-DLCL2. The class given is cell-based, Human. As to conditions: Homo sapiens, WSUDLCL2, WSU-DLCL2, 96 h, read-out: IC50 for inhibiting the proliferation of tumor cells, WSU-DLCL2. As for the experimental part:
as §1, §4, §5

Test [7] concerns Hep3B2.1-7. In words: CCK-8 tumor cell proliferation, Hep3B2.1-7. The test is classed as cell-based, Human. The following applies: Hep3B2.1-7, 96 h, read-out: IC50 for inhibiting the proliferation of tumor cells, Hep3B2.1-7. As for the experimental part: as §1, §2, §3
The test system of test [8] is MM.1R. Nature of the test: CCK-8 tumor cell proliferation, MM.1R. The class given is cell-based. As to conditions: 72 h, read-out: IC50 for inhibiting the proliferation of tumor cells, MM.1R. Here is the method: as §1, §4, §5
Test [9] deals with Kasumi-1. Nature of the test: CCK-8 tumor cell proliferation, Kasumi-1. The class given is cell-based. As to conditions: Homo sapiens, Kasumi-1, 72 h, read-out: IC50 for inhibiting the proliferation of tumor cells, Kasumi-1. Here is the method:
as §1, §4, §5

Test [10] concerns SU-DHL-6. In words: CCK-8 tumor cell proliferation, SU-DHL-6. As to conditions: Homo sapiens, SU-DHL-6, 72 h, read-out: IC50 for inhibiting the proliferation of tumor cells, SU-DHL-6. The class given is cell-based. As for the experimental part: as §1, §4, §5
Test [11] relates to SW620. Nature of the test: CCK-8 tumor cell proliferation, SW620. As to conditions: SW620, 96 h, read-out: IC50 for inhibiting the proliferation of tumor cells, SW620. The class given is cell-based, Human. As for the experimental part:
as §1, §4, §5

The mark [12] stands for this setting: Homo sapiens, MGC-803, MGC80-3, 96 h.

Regarding `CC1(C)[C@H](NC(=O)c2ccc(N3CCC(CN4CC5CCC(C4)N5c4cc5c(cc4F)C(=O)N(C4CCC(=O)NC4=O)C5=O)CC3)nn2)C(C)(C)[C@H]1Oc1ccc(C#N)c(Cl)c1` (stereo partly drawn) [GT-03398, N-((1r,3r)-3-(3-chloro-4-cyanophenoxy)-2,2,4,4-tetramethylcyclobutyl)-6-(4-((8-(2-(2,6-dioxopiperidin-3-yl)-6-fluoro-1,3-dioxoisoindolin-5-yl)-3,8-diazabicyclo[3.2.1]octan-3-yl)methyl)piperidin-1-yl)pyridazine-3-carboxamide], the IC50 in test [1] (setting [12]) was at most 50 nM; in [2] (Homo sapiens) it was 50 to 100 nM; in test [3] (Homo sapiens), 50 to 100 nM; in test [4], at most 50 nM; in [5] (Homo sapiens), 50 to 100 nM.

As for `CC1(C)[C@H](NC(=O)c2ccc(N3CCC(CN4CC5CCC(C4)N5c4cc5c(cc4F)C(=O)N(C4CCC(=O)NC4=O)C5=O)CC3)nc2)C(C)(C)[C@H]1Oc1ccc(C#N)c(Cl)c1` (stereo partly drawn) [GT-03402, N-((1r,3r)-3-(3-chloro-4-cyanophenoxy)-2,2,4,4-tetramethylcyclobutyl)-6-(4-((8-(2-(2,6-dioxopiperidin-3-yl)-6-fluoro-1,3-dioxoisoindolin-5-yl)-3,8-diazabicyclo[3.2.1]octan-3-yl)methyl)piperidin-1-yl)nicotinamide], the IC50 fell in the range of 50 to 100 nM in test [2] (Homo sapiens); 50 to 100 nM in test [3] (Homo sapiens); 50 to 100 nM in [4]; 100 to 500 nM in [5] (Homo sapiens); 100 to 500 nM in test [6].

On to `CC1(C)[C@H](NC(=O)c2ccc(N3CCC(CN4CC5CCC4CN5c4ccc5c(c4)C(=O)N(C4CCC(=O)NC4=O)C5=O)CC3)nc2)C(C)(C)[C@H]1Oc1ccc(C#N)c(Cl)c1` (stereo partly drawn) [GT-03481, N-((1r,3r)-3-(3-chloro-4-cyanophenoxy)-2,2,4,4-tetramethylcyclobutyl)-6-(4-((5-(2-(2,6-dioxopiperidin-3-yl)-1,3-dioxoisoindolin-5-yl)-2,5-diazabicyclo[2.2.2]octan-2-yl)methyl)piperidin-1-yl)nicotinamide], for which the IC50 was 100 to 500 nM in test [1] (setting [12]); 100 to 500 nM in [3] (Homo sapiens); 100 to 500 nM in [5] (Homo sapiens); at most 50 nM in [7] (Homo sapiens); 100 to 500 nM in test [6].

For `N#Cc1ccc(OC2CCC(NC(=O)c3ccc(N4CCC(CN5CC6CCC(C5)N6c5ccc6c(c5)C(=O)N(C5CCC(=O)NC5=O)C6=O)CC4)nn3)CC2)cc1Cl` (stereo not drawn) [GT-03488, N-((1r,4r)-4-(3-chloro-4-cyanophenoxy)cyclohexyl)-6-(4-((8-(2-(2,6-dioxopiperidin-3-yl)-1,3-dioxoisoindolin-5-yl)-3,8-diazabicyclo[3.2.1]octan-3-yl)methyl)piperidin-1-yl)pyridazine-3-carboxamide], the IC50 is at most 50 nM in test [1] (MGC80-3, 96 h); 50 to 100 nM in test [2]; at most 50 nM in test [3]; 50 to 100 nM in [5]; at most 50 nM in [8]; at most 50 nM in [7].

For `CC1(C)[C@H](NC(=O)c2ccc(N3CCC(CN4CC5CCC4CN5c4cc5c(cc4F)C(=O)N(C4CCC(=O)NC4=O)C5=O)CC3)nc2)C(C)(C)[C@H]1Oc1ccc(C#N)c(Cl)c1` (stereo partly drawn) [GT-03494, N-((1r,3r)-3-(3-chloro-4-cyanophenoxy)-2,2,4,4-tetramethylcyclobutyl)-6-(4-((5-(2-(2,6-dioxopiperidin-3-yl)-6-fluoro-1,3-dioxoisoindolin-5-yl)-2,5-diazabicyclo[2.2.2]octan-2-yl)methyl)piperidin-1-yl)nicotinamide], the IC50 is 50 to 100 nM in [1] (setting [12]); 1000 to 5000 nM in test [2] (Homo sapiens); 50 to 100 nM in [3] (Homo sapiens); 100 to 500 nM in [5] (Homo sapiens); 50 to 100 nM in [7] (Homo sapiens); 50 to 100 nM in test [6].

On to `Cc1nc(Nc2ncc(C(=O)Nc3c(C)cccc3Cl)s2)cc(N2CCC(CN3CC4CCC(C3)N4c3cc4c(cc3F)C(=O)N(C3CCC(=O)NC3=O)C4=O)CC2)n1` (stereo not drawn) [GT-03627, N-(2-chloro-6-methylphenyl)-2-((6-(4-((8-(2-(2,6-dioxopiperidin-3-yl)-6-fluoro-1,3-dioxoisoindolin-5-yl)-3,8-diazabicyclo[3.2.1]octan-3-yl)methyl)piperidin-1-yl)-2-methylpyrimidin-4-yl)amino)thiazole-5-carboxamide], for which the IC50 in test [9] and in [10] was 100 to 500 nM each time.

Regarding `Cc1nc(Nc2ncc(C(=O)Nc3c(C)cccc3Cl)s2)cc(N2CCC(CN3CC4CCC(C3)N4c3ccc4c(c3)C(=O)N(C3CCC(=O)NC3=O)C4=O)CC2)n1` (stereo not drawn) [GT-03629, N-(2-chloro-6-methylphenyl)-2-((6-(4-((8-(2-(2,6-dioxopiperidin-3-yl)-1,3-dioxoisoindolin-5-yl)-3,8-diazabicyclo[3.2.1]octan-3-yl)methyl)piperidin-1-yl)-2-methylpyrimidin-4-yl)amino)thiazole-5-carboxamide], the IC50 in [9] and in [10] was 100 to 500 nM throughout.

As to `Cc1nc(Nc2ncc(C(=O)Nc3c(C)cccc3Cl)s2)cc(N2CCC(CN3CC4CC(C3)N4c3ccc4c(c3)C(=O)N(C3CCC(=O)NC3=O)C4=O)CC2)n1` (stereo not drawn) [GT-03630, N-(2-chloro-6-methylphenyl)-2-((6-(4-((6-(2-(2,6-dioxopiperidin-3-yl)-1,3-dioxoisoindolin-5-yl)-3,6-diazabicyclo[3.1.1]heptan-3-yl)methyl)piperidin-1-yl)-2-methylpyrimidin-4-yl)amino)thiazole-5-carboxamide], the results for the IC50 in [9] and in [10] were at most 50 nM and 100 to 500 nM, respectively.

`CN(C)C(=O)c1cc2cnc(Nc3ccc(N4CCC(CN5CC6CCC(C5)N6c5ccc6c(c5)C(=O)N(C5CCC(=O)NC5=O)C6=O)CC4)cn3)nc2n1C1CCCC1` (stereo not drawn) [GT-03651, 7-cyclopentyl-2-((5-(4-((8-(2-(2,6-dioxopiperidin-3-yl)-1,3-dioxoisoindolin-5-yl)-3,8-diazabicyclo[3.2.1]octan-3-yl)methyl)piperidin-1-yl)pyridin-2-yl)amino)-N,N-dimethyl-7H-pyrrolo[2,3-d]pyrimidine-6-carboxamide]: the IC50 in test [11] (Homo sapiens, SW-620, CCK-8, Table 9 (CDK4/6-based)) fell in the range of 100 to 500 nM.

On to `N#Cc1ccc(OC2CCC(NC(=O)c3ccc(N4CCC(CN5CC6CCC5CN6c5cc6c(cc5F)C(=O)N(C5CCC(=O)NC5=O)C6=O)CC4)nn3)CC2)cc1Cl` (stereo not drawn) [GT-03773, N-((1r,4r)-4-(3-chloro-4-cyanophenoxy)cyclohexyl)-6-(4-((5-(2-(2,6-dioxopiperidin-3-yl)-6-fluoro-1,3-dioxoisoindolin-5-yl)-2,5-diazabicyclo[2.2.2]octan-2-yl)methyl)piperidin-1-yl)pyridazine-3-carboxamide], for which the IC50 in test [11] (CCK-8, Table 8 (AR-based)) was 100 to 500 nM.

For the compound `CN(C)C(=O)c1cc2cnc(Nc3ccc(N4CCNCC4)cn3)nc2n1C1CCCC1` [Ribociclib, reference compound], in [11] (Homo sapiens, SW-620, CCK-8, Table 9, numeric value), the IC50 is above 10000 nM.
